# “Also recorded” adds a separate entry of the source.
# System: not listed separately
# Assay: Solubility of representative compounds (Table 1)
# Type: physicochemical
# Conditions: solvents listed
row,SMILES,Solubility
1,"CS[C@H]1OC([C@@H](NC(=O)C2CNCCN2c2ccccc2)[C@H](C)Cl)[C@H](O)[C@H](O)[C@H]1O (some centres unmarked) [CYD-1-82, 1-Phenyl-piperazine-2-carboxylic acid [2-chloro-1-(3,4,5-trihydroxy-6-methylsulfanyl-tetrahydro-pyran-2-yl)-propyl]amide]","EtOH, DMSO"
2,"CCCCCCCCCCC[C@@H]1CCN[C@H](C(=O)N[C@H](CO)[C@H](O)c2ccccc2)C1 [CYD-5-68-1, (2S,4R)—N-((1R,2R)-1,3-dihydroxy-1-phenylpropan-2-yl)-4-undecylpiperidine-2-carboxamide]","EtOH, DMSO"
3,"CCCCCCCCCCC[C@H]1CCN[C@@H](C(=O)N[C@H](CO)[C@H](O)c2ccccc2)C1 [CYD-5-68-2, (2R,4S)—N-((1R,2R)-1,3-dihydroxy-1-phenylpropan-2-yl)-4-undecylpiperidine-2-carboxamide]","EtOH, DMSO"
4,"CCCCCCCCCCC[C@H]1CCN[C@@H](C(=O)N[C@@H](CO)[C@@H](O)c2ccc(SC)cc2)C1 [CYD-5-77-1, (2R,4S)—N-((1S,2S)-1,3-dihydroxy-1-(4-(methylthio)phenyl)propan-2-yl)-4-undecylpiperidine-2-carboxamide]","EtOH, DMSO"
5,"CCCCCCCCCCC[C@@H]1CCN[C@H](C(=O)N[C@@H](CO)[C@@H](O)c2ccc(SC)cc2)C1 [CYD-5-77-2, (2S,4R)—N-((1S,2S)-1,3-dihydroxy-1-(4-(methylthio)phenyl)propan-2-yl)-4-undecylpiperidine-2-carboxamide]","EtOH, DMSO"
6,"CCCCCCCCCCC[C@H]1CCN[C@@H](C(=O)N[C@@H](CO)[C@@H](O)c2ccc(S(C)(=O)=O)cc2)C1 [CYD-5-80-1, (2R,4S)—N-((1S,2S)-1,3-dihydroxy-1-(4-(methylsulfonyl)phenyl)propan-2-yl)-4-undecylpiperidine-2-carboxamide]","EtOH, DMSO"
7,"CCCCCCCCCCC[C@@H]1CCN[C@H](C(=O)N[C@@H](CO)[C@@H](O)c2ccc(S(C)(=O)=O)cc2)C1 [CYD-5-80-2, (2S,4R)—N-((1S,2S)-1,3-dihydroxy-1-(4-(methylsulfonyl)phenyl)propan-2-yl)-4-undecylpiperidine-2-carboxamide]","EtOH, DMSO"
8,"O=C(N[C@H](CO)[C@H](O)c1ccccc1)[C@@H]1C[C@H](CCc2ccccc2)CCN1 [CYD-5-100-1, (2S,4R)—N-((1R,2R)-1,3-dihydroxy-1-phenylpropan-2-yl)-4-phenethylpiperidine-2-carboxamide]","EtOH, DMSO"
9,"O=C(N[C@H](CO)[C@H](O)c1ccccc1)[C@H]1C[C@@H](CCc2ccccc2)CCN1 [CYD-5-100-2, (2R,4S)—N-((1R,2R)-1,3-dihydroxy-1-phenylpropan-2-yl)-4-phenethylpiperidine-2-carboxamide]","EtOH, DMSO"

# Next, values leading:
row,Solubility,SMILES
1,"EtOH, DMSO","O=C(N[C@H](CO)[C@H](O)c1ccccc1)[C@@H]1C[C@H](CCC2CCCCC2)CCN1 [CYD-6-1-1, (2S,4R)-4-(2-cyclohexylethyl)-N-((1R,2R)-1,3-dihydroxy-1-phenylpropan-2-yl)piperidine-2-carboxamide]"
2,"EtOH, DMSO","O=C(N[C@H](CO)[C@H](O)c1ccccc1)[C@H]1C[C@@H](CCC2CCCCC2)CCN1 [CYD-6-1-2, (2R,4S)-4-(2-cyclohexylethyl)-N-((1R,2R)-1,3-dihydroxy-1-phenylpropan-2-yl)piperidine-2-carboxamide]"
3,"EtOH, DMSO","CC(C)(C)c1ccc(CC[C@@H]2CCN[C@H](C(=O)N[C@H](CO)[C@H](O)c3ccccc3)C2)cc1 [CYD-6-2-1, (2S,4R)-4-(4-(tert-butyl)phenethyl)-N-((1R,2R)-1,3-dihydroxy-1-phenylpropan-2-yl)piperidine-2-carboxamide]"
4,"EtOH, DMSO","CC(C)(C)c1ccc(CC[C@H]2CCN[C@@H](C(=O)N[C@H](CO)[C@H](O)c3ccccc3)C2)cc1 [CYD-6-2-2, (2R,4S)-4-(4-(tert-butyl)phenethyl)-N-((1R,2R)-1,3-dihydroxy-1-phenylpropan-2-yl)piperidine-2-carboxamide]"
5,"EtOH, DMSO","Cc1ccc(CC[C@@H]2CCN[C@H](C(=O)N[C@@H](CO)[C@@H](O)c3ccccc3)C2)cc1 [CYD-6-9-2, (2S,4R)—N-((1S,2S)-1,3-dihydroxy-1-phenylpropan-2-yl)-4-(4-methylphenethyl) piperidine-2-carboxamide]"
6,"EtOH, DMSO","O=C(N[C@@H](CO)[C@@H](O)c1ccccc1)[C@@H]1C[C@H](C2CCCCC2)CCN1 [CYD-6-15-2, (2S,4R)-4-cyclohexyl-N-((1S,2S)-1,3-dihydroxy-1-phenylpropan-2-yl)piperidine-2-carboxamide]"
7,"EtOH, DMSO","O=C(N[C@@H](CO)[C@@H](O)c1ccccc1)[C@@H]1C[C@H](c2ccccc2)CCN1 [CYD-6-16-2, (2S,4R)—N-((1S,2S)-1,3-dihydroxy-1-phenylpropan-2-yl)-4-phenylpiperidine-2-carboxamide]"
8,"EtOH, DMSO",c1ccc(N2CCNCC2CN2CCCCC2)cc1 (centres unmarked) [JZ-1-34]
9,"EtOH, DMSO",c1ccc(N2CCN(CC3CNCCN3c3ccccc3)CC2)cc1 (centres unmarked) [JZ-1-35]

# Molecular target: T1, 5-HT2CR (Homo sapiens, UniProt P28335)
# T1 sequence (P28335 33-458): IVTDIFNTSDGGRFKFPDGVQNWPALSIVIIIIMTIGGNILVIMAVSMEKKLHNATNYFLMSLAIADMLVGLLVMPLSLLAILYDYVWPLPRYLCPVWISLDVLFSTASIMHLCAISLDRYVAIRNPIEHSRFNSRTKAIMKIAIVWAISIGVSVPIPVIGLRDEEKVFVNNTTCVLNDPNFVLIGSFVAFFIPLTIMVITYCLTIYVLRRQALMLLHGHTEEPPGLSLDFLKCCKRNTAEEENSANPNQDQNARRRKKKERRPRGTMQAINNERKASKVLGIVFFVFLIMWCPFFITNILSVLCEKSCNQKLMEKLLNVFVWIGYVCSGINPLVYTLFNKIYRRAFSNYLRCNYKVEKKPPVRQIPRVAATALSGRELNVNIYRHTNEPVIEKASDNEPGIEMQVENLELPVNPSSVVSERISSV
# Assay: 5-HT induced intracellular calcium (Cai++) release assay in live 5-HT2CR-CHO cells
# Type: cell-based
# Parameters: expressed in transfected cells
# Conditions: 5-HT2CR-CHO cells; positive allosteric modulation
# Description: Selected results for the biological characterization of the synthesized compounds can be found in Ding et al., ACS Chem. Neurosci., 3, 538-545, 2012, and also described herein. The biological activity is assessed using an intracellular calcium (Cai^++) release assay. The best-characterized intracellular signaling pathway of the 5-HT2CR is the activation of phospholipase C (PLCβ) via Gαq/11 proteins and the production of diacylglycerol (DAG) and inositol-1,4,5-trisphosphate (IP3), leading to increased Cai^++ release from intracellular stores (Berg et al., Neuropharmacology 55, 969-76, 2008). Functional characterization of our synthetic PNU-69176E (CYD-1-78-2) and its diastereomer CYD-1-78-1 was determined by utilizing an Cai^++ release assay in live cells in which Cai^++ levels can be regarded as an outcome measure of activation of the 5-HT2CR signaling pathway (Berg et al., Neuropharmacology 55, 969-76, 2008). […] In addition, 1 nM of compound CYD-1-78-2 enhanced the Cai^++ response at low concentrations of 5-HT [10^11-3×10^−10 M; F(15,55)=16.73, p<0.01; FIG. 2]. […] Neither compound CYD-1-78-2 [F(10,68)=0.81, n.s.] nor the diastereomer CYD-1-78-1 [F(10,34)=0.76, n.s.] in concentrations up to 10^−5 M induced Cai^++ release in the 5-HT2CR—CHO cells in the absence of 5-HT (FIG. 3). This profile for compounds CYD-1-78-2 and −1 in 5-HT2CR—CHO cells was distinguished from that seen in 5-HT2AR—CHO cells in which neither compound alone or in the presence of 5-HT (compound CYD-1-78-1, F(10,43)=0.78; compound CYD-1-78-2, F(10,55)=1.27; FIG. 4) altered Cai^++ release (Ding et al., ACS Chem. Neurosci. 3, 538-545, 2012).
# The Chinese hamster ovary (CHO) cell line stably transfected with 5-HT2CR was a generous gift of K. Berg and W. Clarke (University of Texas Health Science Center, San Antonio) (K. A. Berg, W. P. Clarke, C. Sailstad, A. Saltzman and S. Maayani, Mol. Pharmacol. 1994, 46 (3), 477-484; Ding et al., ACS Chem. Neurosci. 3, 538-545, 2012). Cells were grown at 37° C., 5% CO2 and 85% relative humidity in GlutaMax α-MEM (Invitrogen, Carlsbad Calif.), 5% fetal bovine serum (Atlanta Biologicals, Atlanta Ga.), 100 μg/mL hygromycin (Mediatech, Manassas Va.) and were passaged when they reached 80% confluence.
# Changes in Cai^++ levels were determined using the calcium sensitive dye Calcium 4 (FLIPR No-wash kit, Molecular Devices, Sunnyvale, Calif., part #R8142). Cells were plated in serum-replete medium at 20,000 cells/well in black-sided, clear bottom 96-well tissue culture plates and were fed ˜24 hrs later with serum-free medium. Following overnight incubation, medium was removed and replaced with 40 μL of fresh serum-free medium plus 40 μL Calcium 4 dye solution in Hank's balanced saline solution (HBSS, without CaCl2 or MgCl2) supplemented with 2.5 mM water soluble probenicid (Invitrogen) to inhibit extracellular transport of the dye. Plates were incubated for 60 min at 37° C. and 60 min at room temperature in the dark. Fluorescence (λex=485 nm, λem=525 nm) was measured with a FlexStation3 (Molecular Devices). A baseline was established for each well during the initial segment of each run. Addition of 20 μL of 5× concentrated tested compound occurred at 17 sec and fluorescence was recorded every 1.7 sec for 90 sec to determine any innate agonist activity. This first round of 90 sec recordings provided a 20 min preincubation period. […] Maximum peak height was determined by the FlexStation software (SoftMax Pro 5.2) for each well and was normalized to vehicle control.
row,effect on 5-HT-induced Cai++ release,SMILES
1,enhanced; also recorded: potentiated,"CS[C@H]1OC([C@@H](NC(=O)C2CNCCN2c2ccccc2)[C@H](C)Cl)[C@H](O)[C@H](O)[C@H]1O (some centres unmarked) [CYD-1-82, 1-Phenyl-piperazine-2-carboxylic acid [2-chloro-1-(3,4,5-trihydroxy-6-methylsulfanyl-tetrahydro-pyran-2-yl)-propyl]amide]"

# Same assay, conditions: 5-HT-induced Cai++ release, 5-HT2CR-CHO cells
row,EC50 [nM],SMILES
1,8 ± 4,"CS[C@H]1OC([C@@H](NC(=O)C2CNCCN2c2ccccc2)[C@H](C)Cl)[C@H](O)[C@H](O)[C@H]1O (some centres unmarked) [CYD-1-82, 1-Phenyl-piperazine-2-carboxylic acid [2-chloro-1-(3,4,5-trihydroxy-6-methylsulfanyl-tetrahydro-pyran-2-yl)-propyl]amide]"
